From patent US20180296595A1, “METHODS AND COMPOSITIONS FOR CANCER TREATMENT” (Memorial Sloan Kettering Cancer Center, priority 2015, published 2018)
Ends that are not written are not given here.

Key:
LNCaP xenografts = experiment: LNCaP prostate cancer xenografts; assay type: in vivo
Description: Each of the photographs in FIG. 6, panel C and panel D depicts a representative animal treated with vehicle (FIG. 6, panel C) or bortezomib-loaded FH (1.0 mM) (FIG. 6, panel D).
Studies in breast cancer described a “low intracellular iron” phenotype, characterized by high ferroportin, which was associated with good prognosis. In contrast, the “high intracellular iron” phenotype, characterized by low ferroportin and high hepcidin, was associated with a poor prognosis (Pinnix et al. (2010), Sci. Transl. Med., 2(43): 43ra56). Recently, a similar observation was made in prostate cancer (Tesfay et al. (2015) Cancer Res., 75(11):2254-63. To extend the analysis to prostate cancer, LNCaP prostate cancer xenografts were treated with FH-loaded bortezomib (a ROS-inducing drug).
FH alone was able to decrease tumor volume by about 33% (panel b). […] Free bortezomib was not effective, but when loaded into FH a significant therapy effect was achieved as shown in (panels a and b). Importantly, FH alone also exerted an effect, decreasing tumor volume. Each of the photographs in panel c and panel d depicts a representative animal treated with vehicle (panel c) or bortezomib-loaded FH (1.0 mM) (panel d).

22RV1 cells = experiment: FPN expression after hepcidin therapy; assay type: cell-based
Source text: As a followup, eight different genomic datasets available for prostate cancer on cBioPortal (www.cbioportal.org) containing whole genome data from 1229 prostate cancer patients were mined for analysis. […] FACS and Western Blotting confirmed higher expression of FPN in 22RV1 compared to DU145 (FIG. 7, panel C). […] In 22RV1 cells with higher FPN higher levels of erastin were required compared to DU145 cells with low FPN (FIG. 7, panel E).

FR2 = FR2 (Homo sapiens, UniProt P14207); settings: read-out: affinity for FR2; cited from earlier work
FR1 = FR1 (Homo sapiens, UniProt P15328); settings: read-out: affinity for FR1; cited from earlier work
FR1, sequence (P15328 25-234): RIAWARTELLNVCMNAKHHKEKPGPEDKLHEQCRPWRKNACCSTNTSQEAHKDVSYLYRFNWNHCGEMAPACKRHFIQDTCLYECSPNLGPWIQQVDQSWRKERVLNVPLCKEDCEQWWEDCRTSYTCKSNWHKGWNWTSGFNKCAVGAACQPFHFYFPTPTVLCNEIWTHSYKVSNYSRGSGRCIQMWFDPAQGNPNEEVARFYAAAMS

FR2, sequence (P14207 17-230): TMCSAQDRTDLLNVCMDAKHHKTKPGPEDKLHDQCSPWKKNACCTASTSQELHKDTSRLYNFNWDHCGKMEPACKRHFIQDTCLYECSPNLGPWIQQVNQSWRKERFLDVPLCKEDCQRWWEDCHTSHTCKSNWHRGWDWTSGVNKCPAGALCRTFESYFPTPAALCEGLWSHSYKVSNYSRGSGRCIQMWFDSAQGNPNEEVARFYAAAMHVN

CC(C)C[C@H](NC(=O)[C@H](Cc1ccccc1)NC(=O)c1cnccn1)B(O)O [bortezomib]
therapeutic effect (LNCaP xenografts): not effective

hepcidin (DTHFPICIFCCGCCHRSKCGMCCKT; ends and bridges not checked; cysteine pairing not given here; UniProt P81172 60-84, looked up) [peptide hormone, key regulator of iron homeostasis]
FPN on the cell surface (22RV1 cells): lowered FPN on the cell surface

CN1c2c(nc(N)[nH]c2=O)NC[C@@H]1CNc1ccc(C(=O)N[C@@H](CCC(=O)O)C(=O)O)cc1 [6S 5-methyltetrahydrofolate]
Kd (FR2): 1 nM | Kd (FR1): 55 nM
